What was measured:
[1] = tested on: mitochondrial network; experiment: CCCP-induced perturbation of the mitochondrial network (COXIV/DAPI stain); format: cell-based; conditions: compared to mock-treated controls
Description: In transfected cells, EspZ prevented COOP-induced perturbation of the mitochondrial network (compared to control vector-transfected cells). Red=COXIV (mitochondrial stain); blue=DAPI stain.
The uncoupler carbonyl cyanide m-chlorophenylhydrazone (COOP) induces Fis1- and Drp1-dependent mitochondrial fission. In transfected cells, EspZ prevented COOP-induced perturbation of the mitochondrial network (see FIG. 10). Thus, EspZ may be necessary and sufficient for inhibiting mitochondrial fission.

[2] = tested on: EspZ dimerization/oligomerization; experiment: ToxLuc system (ToxR-TM-MBP fusions, ctx promoter luciferase reporter); format: cell-based, EPEC; conditions: TM2 derivatives expressed as ToxR-TM-MBP fusions in E. coli ΔmalE strain (NT326); baseline Ala17
Description: (§1) Directional targeting of the TM region to the inner membrane allows the periplasmic MBP domain to complement the growth of the ΔmalE strain in medium containing maltose as the sole carbon source. […] TM domain interactions induce dimerization of cytoplasmic ToxR domains, allowing the transcriptional activator to bind to the ctx promoter and promote expression of the downstream luciferase reporter. […] A 17-residue poly-alanine stretch (Ala17) was used as a baseline TM control for nonspecific ToxR-dependent luciferase activation. A GpA GXXXG mutant (G831) was impaired for luciferase activation (REF).
as §1, with “Membrane-localized GXXXG sequences can promote homo- and hetero-typic interactions between proteins. Referring to FIG. 5A and FIG. 5B, a ToxLuc system was used to verify targeting of the predicted EspZ TM regions to the membrane and to assess the role of GXXXG sequences in EspZ dimerization/oligomerization. […] Western blot analyses confirmed robust expression of all ToxR-TM-MBP fusion proteins. Directional” for “Directional”, “activation. As noted previously, a” for “activation. A”, “mutant (G83I)” for “mutant (G831)”

Row | Compound | effect on mitochondrial network [1] | luciferase activity (TM self-association) [2]
1 | N#CC(C#N)=NNc1cccc(Cl)c1 [CCCP, carbonyl cyanide m-chlorophenylhydrazone] | causes fragmentation of the mitochondrial network and its retraction towards the nucleus | 
2 | LGLGIAALVLGGVTTVAGGLAMK (Artificial inhibitor peptide based on EspZ) [G81L, targeting peptide, EspZ TM2 derivative] |  | reduced luciferase activity to near-baseline levels
3 | LGLGIAAGVLGLVTTVAGGLAMK (Artificial inhibitor peptide based on EspZ) [G85L, targeting peptide, EspZ TM2 derivative] |  | reduced luciferase activity to near-baseline levels
4 | LGLLIAALVLGLVTTVAGGLAMK (Artificial inhibitor peptide based on EspZ) [all three G residues, targeting peptide, EspZ TM2 derivative] |  | abrogated luciferase expression
